According to patent US7763429B2, “Compound containing farnesyl diphosphate for modulating TRPV3 function and use thereof” (Korea University Industry and Academic Collaboration …, priority 2008, dated 2010):

How the values were obtained:
mTRPV3 [1] = molecular target: T1, mTRPV3 (Mus musculus, UniProt Q8K424, A9V); test: Whole-cell voltage-clamp recording of mTRPV3 transfected HEK293T cells; assay type: cell-based; conditions: for TRPV3 activity (whole cell current): mTRPV3 transfected HEK293T cells
T1 construct: transiently transfected with plasmid DNA containing polynucleotide encoding; expressed in transfected cells; host or cells: HEK293T (ATCC CRL-11268), transient
T1 sequence (Q8K424 1-791 A9V): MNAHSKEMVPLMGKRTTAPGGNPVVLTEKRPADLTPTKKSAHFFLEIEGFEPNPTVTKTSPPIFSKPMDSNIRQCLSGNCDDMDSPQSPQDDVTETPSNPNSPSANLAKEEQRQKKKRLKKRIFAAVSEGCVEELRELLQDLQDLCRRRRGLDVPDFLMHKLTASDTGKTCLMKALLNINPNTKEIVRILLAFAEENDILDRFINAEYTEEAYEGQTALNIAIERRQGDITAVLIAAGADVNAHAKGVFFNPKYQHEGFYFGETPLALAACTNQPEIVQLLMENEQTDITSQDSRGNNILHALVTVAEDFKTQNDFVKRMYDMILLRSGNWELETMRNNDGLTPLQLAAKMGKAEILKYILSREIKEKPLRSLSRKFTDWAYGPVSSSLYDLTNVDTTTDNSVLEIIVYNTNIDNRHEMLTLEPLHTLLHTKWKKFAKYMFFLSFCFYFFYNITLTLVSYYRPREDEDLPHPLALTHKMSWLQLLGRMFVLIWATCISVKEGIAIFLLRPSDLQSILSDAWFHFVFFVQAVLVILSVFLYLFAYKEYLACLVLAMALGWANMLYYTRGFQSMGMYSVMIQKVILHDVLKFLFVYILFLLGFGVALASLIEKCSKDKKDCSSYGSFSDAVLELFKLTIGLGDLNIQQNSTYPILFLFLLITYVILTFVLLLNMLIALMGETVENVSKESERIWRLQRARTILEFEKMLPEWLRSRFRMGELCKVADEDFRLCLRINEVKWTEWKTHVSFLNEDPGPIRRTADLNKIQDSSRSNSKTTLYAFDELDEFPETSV
Protocol: (§1) HEK293T cell line (ATCC CRL-11268) was transiently transfected with plasmid DNA containing polynucleotide encoding […] (SEQ. ID. NO: 1), rTRPV2 (SEQ. ID. NO: 2), mTRPV3 (SEQ. ID. NO: 3), rTRPV4 (SEQ. ID. NO: 4), mTRPM8 (SEQ. ID. NO: 5) or mTRPA1 (SEQ. ID. NO: 6).
(§2) Particularly, the HEK293T cell line was transiently transfected with 3 μg/35 mm dish of rTRPV1, rTRPV2, mTRPV3, rTRPV4, mTRPM8 and mTRPA1 plasmid DNA, and 600 ng/well of pCDNA3 (Invitrogen Corp., USA; containing green fluorescent protein (GFP) cDNA) using Fugene6 (Roche Diagnostics, USA) according to manufacturer's instruction. The transformed cells were cultured in DMEM/F12 medium containing 10% FBS and 1% penicillin/streptomycin in a CO2 incubator for 24 hours. The cells were smeared on poly-L-lysine-coated glass coverslips, followed by further culture for 10-24 hours.
The mTRPV3 transfected cell line prepared in Example 1 was treated with 1 μM of FPP (Biomol, USA), 4 mM of camphor (Sigma-Aldrich, USA) and ruthenium red (RR; Sigma-Aldrich, USA) at a required time intervals as shown in FIG. 1a. Stock solutions were made using water or DMSO, and were diluted with test solutions before use.
Whole-cell voltage-clamp recording, one of the patch-clamp techniques, was performed with the transfected cell line of Example <1-1> according to the method of Bandel M, et al. (Neuron 41:849-857, 2004).
Particularly, the extracellular solution (140 mM NaCl, 5 mM KCl, 2 mM CaCl2, 1 mM MgCl2, 10 mM HEPES; titrated to pH 7.4 with NaOH) and the pipette solution (140 mM CsCl, 5 mM EGTA, 10 mM HEPES, 2.0 mM MgATP, 0.2 mM NaGTP; titrated to pH 7.2 with CSOH) were used. The potential was held at −60 mV for 250 ms, voltage-ramp pulsed from −80 mV to +80 mV for […] and returned to −60 mV for 250 ms, which was repeated without intersweep. This experiment was repeated 5 times.

mTRPV3 [2] = molecular target: T1, mTRPV3; test: Fluo-3 calcium imaging of mTRPV3 transfected HEK293T cells; assay type: cell-based
Protocol: as §1, §2
The mTRPV3 transfected cell line prepared in Example 1 was treated with FPP at different concentrations from 0.1 to 1,000 nM.
(§3) Particularly, the transfected cell line of Example <3-1> was loaded with Fluo-3AM (5 μM; Sigma Aldrich, USA) in the bath solution (140 mM NaCl, 5 mM KCl, 2 mM CaCl2, 1 mM MgCl2, 10 mM HEPES; adjusted to pH 7.4 with NaOH) containing 0.02% pluronic acid (Invitrogen, USA) at 37° C. for 1 hour. Calcium imaging was performed with LSM5 Pascal confocal microscope (Carl Zeiss, Germany), and time-lapse images (excitation 488 nm/emission 514 nm) were collected every 3 seconds using Carl Zeiss ratio tool software (Carl Zeiss, Germany). Mean value curve of calcium influx response (n=12−62 per each experimental values) was made by Hill plot.
(§4) The TRPA1, TRPV1, TRPV2, TRPV3, TRPV4 and TRPM8 transfected cell lines prepared by the method of Example 1 and the non-transfected HEK cell line (control group) were treated with 1 μM of FPP. Calcium imaging was performed with the transfected cell lines treated as the above by the same manner as described in Example <3-2>.
as §4, with “with 10” for “with 1”, “of IPP (isopentenyl pyrophosphate: Biomol, USA) and 10 μM of GGPP (geranyl-geranyl pyrophosphate: Biomol, USA), the TRPV3 regulator analogues.” for “of FPP.”

mTRPA1 = molecular target: T2, mTRPA1 (Mus musculus, UniProt Q8BLA8); test: Fluo-3 calcium imaging of TRPA1 transfected HEK293T cells; assay type: cell-based; conditions: 1 μM of FPP
T2 construct: transiently transfected with plasmid DNA containing polynucleotide encoding; expressed in transfected cells; host or cells: HEK293T (ATCC CRL-11268), transient
T2 sequence (Q8BLA8 whole entry): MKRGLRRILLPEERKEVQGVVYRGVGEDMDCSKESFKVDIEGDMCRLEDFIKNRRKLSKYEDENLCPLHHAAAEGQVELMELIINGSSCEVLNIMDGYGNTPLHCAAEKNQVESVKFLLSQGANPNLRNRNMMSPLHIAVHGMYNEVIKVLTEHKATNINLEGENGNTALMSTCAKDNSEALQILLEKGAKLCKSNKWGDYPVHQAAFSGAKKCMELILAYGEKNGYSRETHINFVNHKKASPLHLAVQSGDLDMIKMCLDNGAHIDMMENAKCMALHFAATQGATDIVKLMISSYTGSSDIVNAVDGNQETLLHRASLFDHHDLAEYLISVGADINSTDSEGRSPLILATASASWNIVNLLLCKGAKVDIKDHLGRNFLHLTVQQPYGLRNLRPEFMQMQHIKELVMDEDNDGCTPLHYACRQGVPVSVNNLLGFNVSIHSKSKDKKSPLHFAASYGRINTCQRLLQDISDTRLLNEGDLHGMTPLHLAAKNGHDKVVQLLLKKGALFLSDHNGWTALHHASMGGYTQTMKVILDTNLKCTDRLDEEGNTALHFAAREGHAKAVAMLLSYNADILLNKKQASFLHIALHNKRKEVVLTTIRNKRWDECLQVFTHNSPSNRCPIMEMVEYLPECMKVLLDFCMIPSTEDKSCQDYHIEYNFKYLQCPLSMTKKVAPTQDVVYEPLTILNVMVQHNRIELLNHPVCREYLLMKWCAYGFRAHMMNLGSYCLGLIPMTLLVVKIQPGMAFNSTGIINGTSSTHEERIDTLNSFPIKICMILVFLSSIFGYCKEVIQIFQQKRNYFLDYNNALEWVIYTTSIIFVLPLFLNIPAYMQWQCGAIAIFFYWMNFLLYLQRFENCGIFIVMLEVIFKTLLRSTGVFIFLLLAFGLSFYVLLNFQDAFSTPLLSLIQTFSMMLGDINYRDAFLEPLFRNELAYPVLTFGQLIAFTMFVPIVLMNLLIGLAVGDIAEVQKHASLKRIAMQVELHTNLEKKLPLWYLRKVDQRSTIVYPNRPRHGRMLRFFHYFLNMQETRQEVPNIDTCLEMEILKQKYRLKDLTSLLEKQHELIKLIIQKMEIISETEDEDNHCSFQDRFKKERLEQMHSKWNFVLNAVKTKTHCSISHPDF
Protocol: as §1, §2
as §3, with “Mean value curve of calcium influx response (n=12−62 per each experimental values) was made by Hill plot.” left out

rTRPV1 = molecular target: T3, rTRPV1 (Rattus norvegicus, UniProt O35433); test: Fluo-3 calcium imaging of TRPV1 transfected HEK293T cells; assay type: cell-based; conditions: 1 μM of FPP
T3 construct: transiently transfected with plasmid DNA containing polynucleotide encoding; expressed in transfected cells; host or cells: HEK293T (ATCC CRL-11268), transient
T3 sequence (O35433 whole entry): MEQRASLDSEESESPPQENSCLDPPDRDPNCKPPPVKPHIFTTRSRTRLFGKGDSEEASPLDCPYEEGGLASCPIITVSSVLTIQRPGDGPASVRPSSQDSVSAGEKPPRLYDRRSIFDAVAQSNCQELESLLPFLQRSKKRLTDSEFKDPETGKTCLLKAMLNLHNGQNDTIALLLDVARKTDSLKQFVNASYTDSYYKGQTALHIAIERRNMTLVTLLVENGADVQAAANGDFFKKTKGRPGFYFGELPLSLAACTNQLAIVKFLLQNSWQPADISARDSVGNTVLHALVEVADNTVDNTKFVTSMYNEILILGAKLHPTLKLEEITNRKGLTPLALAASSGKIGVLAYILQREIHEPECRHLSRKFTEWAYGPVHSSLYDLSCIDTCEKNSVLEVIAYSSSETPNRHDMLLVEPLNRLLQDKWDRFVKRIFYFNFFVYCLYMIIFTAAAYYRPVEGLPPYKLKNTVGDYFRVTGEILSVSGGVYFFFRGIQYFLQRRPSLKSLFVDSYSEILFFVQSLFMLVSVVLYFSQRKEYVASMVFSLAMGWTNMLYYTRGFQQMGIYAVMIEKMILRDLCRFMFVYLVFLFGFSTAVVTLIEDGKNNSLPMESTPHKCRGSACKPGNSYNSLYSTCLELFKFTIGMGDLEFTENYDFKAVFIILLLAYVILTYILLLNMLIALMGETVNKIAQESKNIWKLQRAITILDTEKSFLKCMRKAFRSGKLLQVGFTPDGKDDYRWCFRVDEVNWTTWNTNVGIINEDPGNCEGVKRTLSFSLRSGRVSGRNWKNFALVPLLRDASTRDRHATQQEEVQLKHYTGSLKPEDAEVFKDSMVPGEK
Protocol: as §1, §2
as §3, with “Mean value curve of calcium influx response (n=12−62 per each experimental values) was made by Hill plot.” left out

rTRPV2 = molecular target: T4, rTRPV2 (Rattus norvegicus, UniProt Q9WUD2, A713V/L151P/T158I); test: Fluo-3 calcium imaging of TRPV2 transfected HEK293T cells; assay type: cell-based; conditions: 1 μM of FPP
T4 construct: transiently transfected with plasmid DNA containing polynucleotide encoding; expressed in transfected cells; host or cells: HEK293T (ATCC CRL-11268), transient
T4 sequence (Q9WUD2 1-761 L151P/T158I/A713V): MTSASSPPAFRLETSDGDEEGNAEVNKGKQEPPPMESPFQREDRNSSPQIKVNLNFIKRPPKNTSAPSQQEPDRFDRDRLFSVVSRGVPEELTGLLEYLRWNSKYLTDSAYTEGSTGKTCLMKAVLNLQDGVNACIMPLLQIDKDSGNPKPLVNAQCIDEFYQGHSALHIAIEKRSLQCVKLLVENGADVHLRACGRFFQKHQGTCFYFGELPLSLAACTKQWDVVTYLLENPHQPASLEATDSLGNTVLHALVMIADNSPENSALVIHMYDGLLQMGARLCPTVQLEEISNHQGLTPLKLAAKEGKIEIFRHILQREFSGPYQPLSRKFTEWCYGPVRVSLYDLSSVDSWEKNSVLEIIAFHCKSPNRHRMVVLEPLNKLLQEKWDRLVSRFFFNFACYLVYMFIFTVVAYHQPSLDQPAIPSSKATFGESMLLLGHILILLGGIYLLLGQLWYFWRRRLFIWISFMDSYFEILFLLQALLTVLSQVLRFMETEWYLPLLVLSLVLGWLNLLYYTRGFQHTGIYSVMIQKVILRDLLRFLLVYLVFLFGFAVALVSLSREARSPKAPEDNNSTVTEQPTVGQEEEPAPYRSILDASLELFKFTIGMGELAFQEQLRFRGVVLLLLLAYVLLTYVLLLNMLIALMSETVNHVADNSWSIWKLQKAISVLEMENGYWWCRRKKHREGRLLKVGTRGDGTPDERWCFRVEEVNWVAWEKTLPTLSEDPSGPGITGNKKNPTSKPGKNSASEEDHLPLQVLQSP
Protocol: as §1, §2
as §3, with “Mean value curve of calcium influx response (n=12−62 per each experimental values) was made by Hill plot.” left out

rTRPV4 = molecular target: T5, rTRPV4 (Rattus norvegicus, UniProt Q9ERZ8); test: Fluo-3 calcium imaging of TRPV4 transfected HEK293T cells; assay type: cell-based; conditions: 1 μM of FPP
T5 construct: transiently transfected with plasmid DNA containing polynucleotide encoding; expressed in transfected cells; host or cells: HEK293T (ATCC CRL-11268), transient
T5 sequence (Q9ERZ8 whole entry): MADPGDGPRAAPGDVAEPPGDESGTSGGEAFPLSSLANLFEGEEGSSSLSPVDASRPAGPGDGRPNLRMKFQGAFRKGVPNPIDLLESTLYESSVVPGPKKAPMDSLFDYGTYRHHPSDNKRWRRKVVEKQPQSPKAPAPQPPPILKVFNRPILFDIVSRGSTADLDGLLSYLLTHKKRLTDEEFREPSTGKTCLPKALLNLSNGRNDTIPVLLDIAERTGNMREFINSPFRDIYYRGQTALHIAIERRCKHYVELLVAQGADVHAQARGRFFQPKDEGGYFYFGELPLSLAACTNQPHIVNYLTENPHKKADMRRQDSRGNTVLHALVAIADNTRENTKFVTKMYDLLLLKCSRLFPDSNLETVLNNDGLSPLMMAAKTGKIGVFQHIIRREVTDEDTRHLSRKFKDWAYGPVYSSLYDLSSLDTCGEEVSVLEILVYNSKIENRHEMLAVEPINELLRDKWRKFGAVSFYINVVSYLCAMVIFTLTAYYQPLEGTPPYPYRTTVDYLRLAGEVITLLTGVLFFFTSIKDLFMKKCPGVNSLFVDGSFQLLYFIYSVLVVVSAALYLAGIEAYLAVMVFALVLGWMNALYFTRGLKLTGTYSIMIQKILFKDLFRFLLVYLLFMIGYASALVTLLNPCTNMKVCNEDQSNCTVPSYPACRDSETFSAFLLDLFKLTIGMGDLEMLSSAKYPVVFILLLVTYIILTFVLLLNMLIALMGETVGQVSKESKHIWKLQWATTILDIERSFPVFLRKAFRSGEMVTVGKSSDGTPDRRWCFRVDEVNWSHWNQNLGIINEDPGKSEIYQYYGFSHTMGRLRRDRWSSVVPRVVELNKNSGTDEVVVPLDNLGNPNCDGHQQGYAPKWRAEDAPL
Protocol: as §1, §2
as §3, with “Mean value curve of calcium influx response (n=12−62 per each experimental values) was made by Hill plot.” left out

mTRPM8 = molecular target: T6, mTRPM8 (Mus musculus, UniProt Q8R4D5); test: Fluo-3 calcium imaging of TRPM8 transfected HEK293T cells; assay type: cell-based; conditions: 1 μM of FPP
T6 construct: transiently transfected with plasmid DNA containing polynucleotide encoding; expressed in transfected cells; host or cells: HEK293T (ATCC CRL-11268), transient
T6 sequence (Q8R4D5 whole entry): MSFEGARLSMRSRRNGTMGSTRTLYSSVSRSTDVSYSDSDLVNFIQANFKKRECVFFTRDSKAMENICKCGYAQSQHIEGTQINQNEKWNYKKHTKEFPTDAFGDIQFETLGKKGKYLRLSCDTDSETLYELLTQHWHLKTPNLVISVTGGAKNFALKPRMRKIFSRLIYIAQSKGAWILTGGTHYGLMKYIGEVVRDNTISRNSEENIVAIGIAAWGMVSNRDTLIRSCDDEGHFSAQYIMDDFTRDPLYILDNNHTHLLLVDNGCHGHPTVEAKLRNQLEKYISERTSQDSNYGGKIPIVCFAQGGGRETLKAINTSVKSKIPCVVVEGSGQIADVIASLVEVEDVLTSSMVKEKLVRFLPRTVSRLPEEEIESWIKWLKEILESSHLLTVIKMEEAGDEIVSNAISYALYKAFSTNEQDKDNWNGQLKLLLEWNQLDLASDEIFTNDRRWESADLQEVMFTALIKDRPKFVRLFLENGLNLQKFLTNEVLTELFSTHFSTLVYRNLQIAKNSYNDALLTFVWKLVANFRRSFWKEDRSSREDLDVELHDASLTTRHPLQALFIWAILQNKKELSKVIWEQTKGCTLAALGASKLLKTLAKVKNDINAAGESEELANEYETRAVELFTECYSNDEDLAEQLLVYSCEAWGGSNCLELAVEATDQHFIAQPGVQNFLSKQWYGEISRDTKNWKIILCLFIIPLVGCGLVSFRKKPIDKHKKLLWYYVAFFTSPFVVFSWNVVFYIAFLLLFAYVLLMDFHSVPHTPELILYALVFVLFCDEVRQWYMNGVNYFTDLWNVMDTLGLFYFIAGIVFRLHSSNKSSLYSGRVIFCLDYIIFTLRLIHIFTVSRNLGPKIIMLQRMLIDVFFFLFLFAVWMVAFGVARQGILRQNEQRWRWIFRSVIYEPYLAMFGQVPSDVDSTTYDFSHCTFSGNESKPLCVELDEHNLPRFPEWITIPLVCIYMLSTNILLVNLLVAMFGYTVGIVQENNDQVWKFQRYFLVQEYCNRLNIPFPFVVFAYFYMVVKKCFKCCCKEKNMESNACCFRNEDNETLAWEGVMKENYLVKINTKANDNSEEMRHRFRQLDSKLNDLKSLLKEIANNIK
Protocol: as §1, §2
as §3, with “Mean value curve of calcium influx response (n=12−62 per each experimental values) was made by Hill plot.” left out

HaCat skin cells = test: Artificial wound recovery: migration and proliferation of HaCat skin cells; assay type: cell-based; conditions: 1 μM of FPP, 12 hours after the treatment
Protocol: HaCat (ATCC, CCL-228) cell line was seeded in a 24-well plate. The present inventors drew lines 1 mm deep on the well fully filled with the cells to make artificial wound. The wounded cells were treated with FPP (1 μM), camphor (4 mM), RR (20 μM) and GGPP (10 μM) respectively and incubated in a CO2 incubator for 12 hours. The control group was not-treated. The width of recovered wound was measured under microscope and compared with that at the beginning, which was presented as wound recovery rate. All the experiments were performed on DMEM/FBS. Floating cells, which means dead cells, after making wound, were eliminated by using PBS to eliminate variables caused by dead cells. The cells were observed under microscope (×40, IX 71 OLYMPUS), and distance was measured by using image analysis program (Meta-flour 7.1, Molecular Devices, USA).

mice = test: Acute hind paw licking/flicking behaviors after CFA inflammatory sensitization; assay type: in vivo; conditions: CFA-injected right hind paw, FPP injected into hind paw, 20 minutes
Protocol: Inflammatory sensitization by FPP was investigated. Particularly, 10 μl of CFA (complete Freund's adjuvant; Sigma Aldrich, USA) was injected to the right hind paws of mice 24 hours before the FPP injection. Before the experiment, the mice were adapted for one hour to the experimental environment. 10 μl of vehicle (saline containing 3% DMSO and 0.5% Tween 80) alone or 10 μl of vehicle containing FPP (3 mM) was injected to the right hind paws of the mice. The time spent for the hind paw licking/flicking behaviors in mice were measured according to the method of Bandell M, et al. (Neuron 41:849-857, 2004) and Moqrich A, et al. (Science 307:1468-1472, 2005), for 20 minutes. Control: not-treated; Experimental group 1.20 μl of CFA+300 μM of FPP PBS solution (black circle); Experimental group 2.20 μl of CFA (white circle).

N.N.N.N.N.N.N.N.N.N.N.N.N.N.[Cl-].[Cl-].[Cl-].[Cl-].[Cl-].[Cl-].[O-2].[O-2].[Ru+3].[Ru+3].[Ru+4] [ruthenium red]
TRPV3 activity (whole cell current) on treatment with the TRP ion channel blocker (mTRPV3 [1]; ruthenium red applied to the activated mTRPV3 transfected cells): activity was reduced

CC12CCC(CC1=O)C2(C)C (centres unmarked) [camphor]
TRPV3 activity (whole cell current) (mTRPV3 [1]; camphor 4 mM): the activity was not so much increased

CC(C)=CCCC(C)=CCCC(C)=CCOP(=O)(O)OP(=O)(O)O [FPP, 3,7,11-trimethyldodeca-2,6,10-trien-1-yl trihydrogen diphosphate]
TRPV3 activity (whole cell current) (mTRPV3 [1]; 1 μM of FPP, +60 mV and −60 mV): significant increase of TRPV3 activity | TRPV3 activation (calcium imaging) (mTRPV3 [2]; 1 μM of FPP): activated | maximal effective dose (mTRPV3 [2]; calcium influx response, FPP 0.1 to 1,000 nM): approximately 1 μM | EC50 (mTRPV3 [2]; calcium influx response, FPP 0.1 to 1,000 nM, Hill plot, read-out: EC50 (effective concentration 50%) to TRPV3): 31.9 nM | TRPA1 activation (calcium imaging) (mTRPA1): did not exhibited activity | TRPV1 activation (calcium imaging) (rTRPV1): did not exhibited activity | TRPV2 activation (calcium imaging) (rTRPV2): did not exhibited activity | TRPV4 activation (calcium imaging) (rTRPV4): did not exhibited activity | TRPM8 activation (calcium imaging) (mTRPM8): did not exhibited activity | migration and proliferation of HaCat skin cells (wound recovery rate) (HaCat skin cells): significantly inhibited | hind paw licking/flicking behavior (pain) (mice): significantly increased licking/flicking behavior

CC(C)=CCC/C(C)=C/CC/C(C)=C/CC/C(C)=C/COP(=O)(O)OP(=O)(O)O [GGPP, geranyl-geranyl pyrophosphate, reference compound]
TRPV3 activation (calcium imaging) (mTRPV3 [2]; 10 μM of analogue): did not induce TRPV3 activation
